From patent US6448006B1, “Methods and compositions for reducing bacterial tolerance to antibacterials disinfectants and organic solvents” (priority 1997, dated 2002)
Values after ≈ are worked out from the molar mass of the structure shown. Like-named read-outs stand apart in the source and are kept apart here.

How the values were obtained:
[1] = test system: E. coli strains (AG100, Pine-Sol/pine oil mutants, Mar mutants); test: Susceptibility by gradient plates (MIC); format: cell-based; conditions: Escherichia coli
Method: (§1) Mutants resistant to Pine-Sol/pine oil were obtained from stationary phase LB broth cultures of E. coli strain “WEC” (wild type strain 15-5068 from Carolina Biological Supply Co., Burlington, N.C.) and AG100 (George and Levy, J. Bacteriol. 155:531-540, 1983), at 30° C. on nutrient agar (NP 3.5GP) or LB agar with 2-3 days incubation in a variety of ways: using a 6 mm disc method; plating cells on plates or gradient plates (Curiale and Levy, J. Bacteriol. 151:209-215, 1982), containing PINE-SOL™ (product of Clorox Co., Oakland, Calif.) or pine oil itself.
(§2) Antibiotic susceptibility was measured at 30° C. using antibiotic susceptibility discs (Carolina Biological), gradient plates with the drug in the top agar (Curiale and Levy, 1982) or agar dilution plates (concentration steps of 1.5 fold; inocula of 10^5 cells/5 μl spot). While there was a variability of resistance phenotypes, all Pine-Sol/pine oil-selected mutants were also multidrug resistant (Table 1A, B).

[2] = test system: E. coli strains bearing mar, soxS or robA plasmids; format: cell-based
Source text: Organic solvent tolerance mediated by the marA, soxS, robA and acrAB loci of E. coli is described in White et al. (J. Bacteriol. 179:6122-6126, 1997).

[3] = test system: E. coli strain WEC and its Pine-Sol-selected mutant; test: Antibiotic susceptibility by discs (diameter of clearing); format: cell-based
Method: as §1, §2

[4] = values in parentheses in column heads; cited from earlier work
[5] = read-out: Susceptibility by gradient plates (MIC), strain AG102, Mar mutant of AG100, selected on Tc (2 steps)
[6] = read-out: Susceptibility by gradient plates (MIC), strain AP1, mutant of AG100 selected by pine oil on disc
[7] = read-out: Susceptibility by gradient plates (MIC), strain AP5, mutant of AG100 selected as for AP1
[8] = read-out: Susceptibility by gradient plates (MIC), strain APS3, mutant of AG100 selected on Pine-Sol gradient (0-1.5%)
[9] = strain AG100, wildtype, read-out: Susceptibility by gradient plates (MIC)
[10] = AG100-B (acrR mutant), no plasmid
[11] = AG100K (marCORAB::kan), no plasmid
[12] = AG102 (marR mutation), no plasmid
[13] = AG102-A (marRl, ΔacrAB), no plasmid

## CCn1cc(C(=O)O)c(=O)c2ccc(C)nc21 [Nal, nalidixic acid]
[1]; [5]
  MIC: 14 µg/mL (≈ 60.3 µM)
[1]; [6]
  MIC: 9.7 µg/mL (≈ 41.8 µM)
[1]; [7]
  MIC: 7.5 µg/mL (≈ 32.3 µM)
[1]; [8]
  MIC: 8.6 µg/mL (≈ 37 µM)
[1]; [9]
  MIC: 1.7 µg/mL (≈ 7.32 µM)
[1]; strain HH180, deletion of 39 kb including mar locus, host MM294, read-out: Susceptibility by gradient plates (MIC)
  MIC: < 1.8 µg/mL
[1]; strain HH188, HH180 containing pHHM183 (mar+), read-out: Susceptibility by gradient plates (MIC)
  MIC: 3.7 µg/mL (≈ 15.9 µM)
[1]; strain HH191, HH180 containing pHHM191 (marR2), read-out: Susceptibility by gradient plates (MIC)
  MIC: 9.1 µg/mL (≈ 39.2 µM)
[1]; strain HH193, HH180 containing pHHM193 (marR5), read-out: Susceptibility by gradient plates (MIC)
  MIC: 10.9 µg/mL (≈ 46.9 µM)

## CCCCCC [n-hexane]
[2]; AG100 (wild-type), no plasmid
  Growth in presence of organic solvent: + +
[2]; AG100, plasmid pMAK-TU1
  Growth in presence of organic solvent: + +
[2]; AG100, plasmid pMAK-TU1 & TU2
  Growth in presence of organic solvent: + +
[2]; AG100, plasmid pMAK-TU2
  Growth in presence of organic solvent: + +
[2]; AG100, plasmid pSMarAB
  Growth in presence of organic solvent: + +
[2]; AG100, plasmid pSRob
  Growth in presence of organic solvent: + +
[2]; AG100, plasmid pSXS
  Growth in presence of organic solvent: + +
[2]; AG100-A (ΔacrAB), no plasmid
  Growth in presence of organic solvent: −
[2]; [10]
  Growth in presence of organic solvent: + +
[2]; [11]
  Growth in presence of organic solvent: + ((+) visible growth(≦100 colonies))
[2]; AG100K, plasmid pMAK-TU1
  Growth in presence of organic solvent: + ((+) visible growth(≦100 colonies))
[2]; AG100K, plasmid pMAK-TU2
  Growth in presence of organic solvent: + +
[2]; AG100K, plasmid pMAK-TUI & TU2
  Growth in presence of organic solvent: + +
[2]; AG100K, plasmid pSMarAB
  Growth in presence of organic solvent: + +
[2]; AG100K, plasmid pSRob
  Growth in presence of organic solvent: + +
[2]; AG100K, plasmid pSXS
  Growth in presence of organic solvent: + +
[2]; [12]
  Growth in presence of organic solvent: + +
[2]; [13]
  Growth in presence of organic solvent: −
[2]; AG102-A, plasmid pSMarAB
  Growth in presence of organic solvent: −
[2]; AG102-A, plasmid pSRob
  Growth in presence of organic solvent: −
[2]; AG102-A, plasmid pSXS
  Growth in presence of organic solvent: −
[2]; DJ901 (ΔsoxRS), no plasmid
  Growth in presence of organic solvent: + +
[2]; DJ901, plasmid pMAK-TU1
  Growth in presence of organic solvent: + +
[2]; DJ901, plasmid pMAK-TU1 & TU2
  Growth in presence of organic solvent: + +
[2]; DJ901, plasmid pMAK-TU2
  Growth in presence of organic solvent: + +
[2]; DJ901, plasmid pSMarAB
  Growth in presence of organic solvent: + +
[2]; DJ901, plasmid pSRob
  Growth in presence of organic solvent: + +
[2]; DJ901, plasmid pSXS
  Growth in presence of organic solvent: + +
[2]; GC4468 (wild-type), no plasmid
  Growth in presence of organic solvent: + +
[2]; GC4468, plasmid pMAK-TU1
  Growth in presence of organic solvent: + +
[2]; GC4468, plasmid pMAK-TU1 & TU2
  Growth in presence of organic solvent: + +
[2]; GC4468, plasmid pMAK-TU2
  Growth in presence of organic solvent: + +
[2]; GC4468, plasmid pSMarAB
  Growth in presence of organic solvent: + +
[2]; GC4468, plasmid pSRob
  Growth in presence of organic solvent: + +
[2]; GC4468, plasmid pSXS
  Growth in presence of organic solvent: + +
[2]; JHC1069 (cfxB1), no plasmid
  Growth in presence of organic solvent: + +
[2]; JTG1078 (soxR105), no plasmid
  Growth in presence of organic solvent: + +
[2]; MCH164 (Δmar), no plasmid
  Growth in presence of organic solvent: + ((+) visible growth(≦100 colonies))
[2]; MCH164, plasmid pMAK-TU1
  Growth in presence of organic solvent: + ((+) visible growth(≦100 colonies))
[2]; MCH164, plasmid pMAK-TU1 & TU2
  Growth in presence of organic solvent: + +
[2]; MCH164, plasmid pMAK-TU2
  Growth in presence of organic solvent: + +
[2]; MCH164, plasmid pSMarAB
  Growth in presence of organic solvent: + +
[2]; MCH164, plasmid pSRob
  Growth in presence of organic solvent: + +
[2]; MCH164, plasmid pSXS
  Growth in presence of organic solvent: + +
[2]; RA4468 (robA::kan), no plasmid
  Growth in presence of organic solvent: + ((+) visible growth(≦100 colonies))
[2]; RA4468, plasmid pMAK-TU1
  Growth in presence of organic solvent: + ((+) visible growth(≦100 colonies))
[2]; RA4468, plasmid pMAK-TU1 & TU2
  Growth in presence of organic solvent: + +
[2]; RA4468, plasmid pMAK-TU2
  Growth in presence of organic solvent: + +
[2]; RA4468, plasmid pSMarAB
  Growth in presence of organic solvent: + +
[2]; RA4468, plasmid pSRob
  Growth in presence of organic solvent: + +
[2]; RA4468, plasmid pSXS
  Growth in presence of organic solvent: + +

## O=C(N[C@H](CO)[C@H](O)c1ccc([N+](=O)[O-])cc1)C(Cl)Cl [Cm, chloramphenicol]
[3]; strain WEC, wild type, 30° C.
  Susceptibility by discs; diameter of clearing: 27 mm
[3]; {}
  Susceptibility by discs; diameter of clearing: 11 mm
[1]; [5]
  MIC: > 35 µg/mL
[1]; [6]
  MIC: 7.8 µg/mL (≈ 24.1 µM)
[1]; [7]
  MIC: 21 µg/mL (≈ 65 µM)
[1]; [8]
  MIC: > 35 µg/mL
[1]; [9]
  MIC: 2.6 µg/mL (≈ 8.05 µM)

## C1CCCCC1 [cyclohexane]
[2]; AG100 (wild-type), no plasmid
  Growth in presence of organic solvent: −
[2]; AG100, plasmid pMAK-TU1
  Growth in presence of organic solvent: −
[2]; AG100, plasmid pMAK-TU1 & TU2
  Growth in presence of organic solvent: + +
[2]; AG100, plasmid pMAK-TU2
  Growth in presence of organic solvent: + ((+) visible growth(≦100 colonies))
[2]; AG100, plasmid pSMarAB
  Growth in presence of organic solvent: + ((+) visible growth(≦100 colonies))
[2]; AG100, plasmid pSRob
  Growth in presence of organic solvent: + +
[2]; AG100, plasmid pSXS
  Growth in presence of organic solvent: + +
[2]; AG100-A (ΔacrAB), no plasmid
  Growth in presence of organic solvent: −
[2]; [10]
  Growth in presence of organic solvent: + ((+) visible growth(≦100 colonies))
[2]; [11]
  Growth in presence of organic solvent: −
[2]; AG100K, plasmid pMAK-TU1
  Growth in presence of organic solvent: −
[2]; AG100K, plasmid pMAK-TU2
  Growth in presence of organic solvent: + ((+) visible growth(≦100 colonies))
[2]; AG100K, plasmid pMAK-TUI & TU2
  Growth in presence of organic solvent: + +
[2]; AG100K, plasmid pSMarAB
  Growth in presence of organic solvent: + ((+) visible growth(≦100 colonies))
[2]; AG100K, plasmid pSRob
  Growth in presence of organic solvent: + +
[2]; AG100K, plasmid pSXS
  Growth in presence of organic solvent: + +
[2]; [12]
  Growth in presence of organic solvent: + +
[2]; [13]
  Growth in presence of organic solvent: −
[2]; AG102-A, plasmid pSMarAB
  Growth in presence of organic solvent: −
[2]; AG102-A, plasmid pSRob
  Growth in presence of organic solvent: −
[2]; AG102-A, plasmid pSXS
  Growth in presence of organic solvent: −
[2]; DJ901 (ΔsoxRS), no plasmid
  Growth in presence of organic solvent: −
[2]; DJ901, plasmid pMAK-TU1
  Growth in presence of organic solvent: −
[2]; DJ901, plasmid pMAK-TU1 & TU2
  Growth in presence of organic solvent: + +
[2]; DJ901, plasmid pMAK-TU2
  Growth in presence of organic solvent: + ((+) visible growth(≦100 colonies))
[2]; DJ901, plasmid pSMarAB
  Growth in presence of organic solvent: + ((+) visible growth(≦100 colonies))
[2]; DJ901, plasmid pSRob
  Growth in presence of organic solvent: + +
[2]; DJ901, plasmid pSXS
  Growth in presence of organic solvent: + +
[2]; GC4468 (wild-type), no plasmid
  Growth in presence of organic solvent: −
[2]; GC4468, plasmid pMAK-TU1
  Growth in presence of organic solvent: −
[2]; GC4468, plasmid pMAK-TU1 & TU2
  Growth in presence of organic solvent: + +
[2]; GC4468, plasmid pMAK-TU2
  Growth in presence of organic solvent: + ((+) visible growth(≦100 colonies))
[2]; GC4468, plasmid pSMarAB
  Growth in presence of organic solvent: + ((+) visible growth(≦100 colonies))
[2]; GC4468, plasmid pSRob
  Growth in presence of organic solvent: + +
[2]; GC4468, plasmid pSXS
  Growth in presence of organic solvent: + +
[2]; JHC1069 (cfxB1), no plasmid
  Growth in presence of organic solvent: + +
[2]; JTG1078 (soxR105), no plasmid
  Growth in presence of organic solvent: + +
[2]; MCH164 (Δmar), no plasmid
  Growth in presence of organic solvent: −
[2]; MCH164, plasmid pMAK-TU1
  Growth in presence of organic solvent: −
[2]; MCH164, plasmid pMAK-TU1 & TU2
  Growth in presence of organic solvent: + +
[2]; MCH164, plasmid pMAK-TU2
  Growth in presence of organic solvent: −
[2]; MCH164, plasmid pSMarAB
  Growth in presence of organic solvent: −
[2]; MCH164, plasmid pSRob
  Growth in presence of organic solvent: −
[2]; MCH164, plasmid pSXS
  Growth in presence of organic solvent: −
[2]; RA4468 (robA::kan), no plasmid
  Growth in presence of organic solvent: −
[2]; RA4468, plasmid pMAK-TU1
  Growth in presence of organic solvent: −
[2]; RA4468, plasmid pMAK-TU1 & TU2
  Growth in presence of organic solvent: + +
[2]; RA4468, plasmid pMAK-TU2
  Growth in presence of organic solvent: + ((+) visible growth(≦100 colonies))
[2]; RA4468, plasmid pSMarAB
  Growth in presence of organic solvent: + ((+) visible growth(≦100 colonies))
[2]; RA4468, plasmid pSRob
  Growth in presence of organic solvent: + +
[2]; RA4468, plasmid pSXS
  Growth in presence of organic solvent: + +
[4]
  log Pow: cyclohexane (3.4)
